Paper PMC2248166, “Quantitative peptide binding motifs for 19 human and mouse MHC class I molecules derived using positional scanning combinatorial peptide libraries” (Immunome Research, 2008)
Where a SMILES comes first, the peptide text is derived from it.

Target: HLA B*1501 (Homo sapiens, UniProt P01889, A329T/A93T/A95T/C349S/D201E/D98Y/E187L/E204Q/E69M/E70A/K202T/N87E/Q94N/R155S/R180W/S121R/S35A/S48A/V306I/V36M/Y140S/Y91S)
Test: biochemical
Assay type: binding

| SMILES | IC50 [nM] |
| --- | --- |
| CC[C@H](C)[C@H](NC(=O)[C@@H](N)Cc1ccc(O)cc1)C(=O)N[C@@H](CO)C(=O)N[C@@H](CCCCN)C(=O)N[C@H](C(=O)N[C@@H](Cc1ccccc1)C(=O)N[C@@H](CCC(=O)O)C(=O)N[C@@H](Cc1c[nH]cn1)C(=O)N[C@H](C(=O)O)C(C)C)C(C)C [3102.0810] (H-YISKVFEHV-OH) | 94 |
| CC(C)C[C@H](N)C(=O)N[C@@H](C)C(=O)N[C@@H](CCCCN)C(=O)N[C@@H](CCCCN)C(=O)N[C@@H](CO)C(=O)N[C@@H](Cc1ccc(O)cc1)C(=O)N[C@H](C(=O)N[C@H](C(=O)N[C@@H](Cc1ccccc1)C(=O)O)C(C)C)C(C)C [3102.0811] (H-LAKKSYVVF-OH) | 97 |
| C[C@@H](O)[C@H](N)C(=O)N[C@@H](CO)C(=O)NCC(=O)N[C@@H](CCCCN)C(=O)N[C@@H](Cc1ccc(O)cc1)C(=O)N[C@@H](Cc1ccccc1)C(=O)N[C@@H](CO)C(=O)N[C@H](C(=O)N[C@@H](Cc1ccccc1)C(=O)O)[C@@H](C)O [3102.0812] (H-TSGKYFSTF-OH) | 86 |
| CC(C)C[C@H](NC(=O)[C@H](CS)NC(=O)[C@H](CO)NC(=O)[C@H](CCCCN)NC(=O)[C@@H](NC(=O)[C@@H](N)CCCCN)C(C)C)C(=O)N[C@@H](CS)C(=O)N[C@@H](CO)C(=O)N[C@@H](Cc1ccccc1)C(=O)O [3102.0813] (H-KVKSCLCSF-OH) | 17 |
| CC[C@H](C)[C@H](NC(=O)[C@H](CCC(N)=O)NC(=O)[C@H](CCCNC(=N)N)NC(=O)[C@H](CC(C)C)NC(=O)[C@@H](N)CCCCN)C(=O)N[C@H](C(=O)N[C@@H](C)C(=O)N[C@@H](Cc1ccc(O)cc1)C(=O)N[C@@H](Cc1ccccc1)C(=O)O)C(C)C [3102.0815] (H-KLRQIVAYF-OH) | 7.6 |
| CSCC[C@H](NC(=O)[C@@H](NC(=O)[C@H](CC(C)C)NC(=O)[C@H](CC(C)C)NC(=O)[C@H](Cc1ccc(O)cc1)NC(=O)[C@H](CCC(N)=O)NC(=O)[C@@H](N)CC(N)=O)[C@@H](C)O)C(=O)N[C@@H](Cc1ccccc1)C(=O)N[C@@H](Cc1ccccc1)C(=O)O [3102.0819] (H-NQYLLTMFF-OH) | 1.2 |
| CSCC[C@H](N)C(=O)N[C@@H](CC(C)C)C(=O)N[C@@H](CC(N)=O)C(=O)N[C@H](C(=O)N[C@@H](Cc1ccc(O)cc1)C(=O)NCC(=O)N[C@@H](CCC(=O)O)C(=O)NCC(=O)N[C@@H](Cc1ccccc1)C(=O)O)[C@@H](C)O [3102.0822] (H-MLNTYGEGF-OH) | 2.3 |
| CC(C)C[C@H](NC(=O)[C@@H](NC(=O)[C@H](CCCCN)NC(=O)[C@H](CCCCN)NC(=O)[C@H](C)NC(=O)[C@@H](N)CC(C)C)[C@@H](C)O)C(=O)N[C@@H](C)C(=O)N1CCC[C@H]1C(=O)N[C@@H](Cc1ccccc1)C(=O)O [3102.0825] (H-LAKKTLAPF-OH) | 2.1 |
| CC[C@H](C)[C@H](NC(=O)[C@@H](NC(=O)[C@@H](N)Cc1ccccc1)[C@@H](C)CC)C(=O)N[C@@H](CCCCN)C(=O)N[C@@H](CO)C(=O)N[C@@H](CO)C(=O)N[C@@H](Cc1ccc(O)cc1)C(=O)N[C@H](C(=O)N[C@@H](Cc1ccccc1)C(=O)O)C(C)C [3102.0827] (H-FIIKSSYVF-OH) | 3.2 |
| CC[C@H](C)[C@H](NC(=O)[C@H](Cc1ccc(O)cc1)NC(=O)[C@H](CCSC)NC(=O)[C@@H](N)CC(C)C)C(=O)N[C@@H](CC(C)C)C(=O)NCC(=O)N[C@H](C(=O)N[C@@H](Cc1ccc(O)cc1)C(=O)NCC(=O)O)[C@@H](C)O [3102.0828] (H-LMYILGTYG-OH) | 62 |
| CC[C@H](C)[C@H](NC(=O)[C@@H](NC(=O)[C@@H](NC(=O)[C@H](C)NC(=O)[C@H](CCSC)NC(=O)[C@@H](N)Cc1ccc(O)cc1)[C@@H](C)O)[C@@H](C)O)C(=O)N[C@@H](CC(C)C)C(=O)N[C@@H](CCC(=O)O)C(=O)N[C@@H](CCSC)C(=O)O [3102.0830] (H-YMATTILEM-OH) | 2.2 |
| CSCC[C@H](NC(=O)[C@@H](NC(=O)[C@H](CCC(=O)O)NC(=O)[C@H](CCSC)NC(=O)[C@H](CC(C)C)NC(=O)[C@H](CCSC)NC(=O)[C@H](Cc1ccccc1)NC(=O)[C@@H](NC(=O)[C@H](C)N)C(C)C)[C@@H](C)O)C(=O)O [3102.0831] (H-AVFMLMETM-OH) | 26 |
| CC(C)C[C@H](NC(=O)[C@H](Cc1c[nH]cn1)NC(=O)[C@@H](NC(=O)[C@H](Cc1ccccc1)NC(=O)[C@H](Cc1ccc(O)cc1)NC(=O)[C@H](CS)NC(=O)[C@H](Cc1ccc(O)cc1)NC(=O)[C@H](CC(C)C)NC(=O)CN)[C@@H](C)O)C(=O)O [3102.0832] (H-GLYCYFTHL-OH) | 6.9 |
| NCCCC[C@H](NC(=O)[C@H](CCCCN)NC(=O)[C@H](CO)NC(=O)[C@@H](N)CCCCN)C(=O)N[C@@H](Cc1ccc(O)cc1)C(=O)N[C@@H](CCC(=O)O)C(=O)NCC(=O)N1CCC[C@H]1C(=O)N[C@@H](Cc1ccccc1)C(=O)O [3102.0833] (H-KSKKYEGPF-OH) | 1.9 |
| CSCC[C@H](NC(=O)[C@@H](N)CC(C)C)C(=O)N[C@@H](CC(N)=O)C(=O)N[C@@H](CC(N)=O)C(=O)N[C@@H](CC(C)C)C(=O)N[C@@H](CC(=O)O)C(=O)N[C@H](C(=O)N[C@@H](CC(C)C)C(=O)N[C@@H](Cc1ccccc1)C(=O)O)[C@@H](C)O [3102.0836] (H-LMNNLDTLF-OH) | 86 |
| CC[C@H](C)[C@H](NC(=O)[C@H](CO)NC(=O)[C@@H](NC(=O)[C@H](CS)NC(=O)[C@@H](NC(=O)[C@H](CO)NC(=O)[C@H](CCCNC(=N)N)NC(=O)[C@H](CCSC)NC(=O)[C@@H](N)CC(C)C)[C@@H](C)CC)C(C)C)C(=O)O [3102.0838] (H-LMRSICVSI-OH) | 63 |
| CSCC[C@H](N)C(=O)N[C@@H](CCC(=O)O)C(=O)N[C@@H](CCCNC(=N)N)C(=O)N[C@@H](Cc1ccccc1)C(=O)N[C@@H](CC(N)=O)C(=O)N[C@@H](CS)C(=O)N[C@@H](CO)C(=O)N[C@@H](CO)C(=O)N[C@@H](Cc1ccccc1)C(=O)O [3102.0839] (H-MERFNCSSF-OH) | 1.6 |
| CC(C)C[C@H](N)C(=O)N[C@@H](CO)C(=O)N[C@@H](CCCNC(=N)N)C(=O)N[C@H](C(=O)N[C@@H](Cc1ccccc1)C(=O)N[C@@H](Cc1ccccc1)C(=O)N[C@@H](CS)C(=O)N[C@H](C(=O)N[C@@H](Cc1ccc(O)cc1)C(=O)O)C(C)C)C(C)C [3102.0840] (H-LSRVFFCVY-OH) | 2.9 |
| CSCC[C@H](NC(=O)[C@H](Cc1c[nH]cn1)NC(=O)[C@@H]1CCCN1C(=O)[C@H](CC(C)C)NC(=O)[C@H](Cc1ccccc1)NC(=O)[C@H](CC(N)=O)NC(=O)[C@H](Cc1c[nH]cn1)NC(=O)[C@H](CC(C)C)NC(=O)[C@@H](N)CCSC)C(=O)O [3102.0846] (H-MLHNFLPHM-OH) | 41 |
| CC(C)C[C@H](NC(=O)[C@@H]1CCCN1C(=O)[C@H](CCCNC(=N)N)NC(=O)[C@H](Cc1ccc(O)cc1)NC(=O)[C@H](Cc1ccccc1)NC(=O)[C@@H](NC(=O)CN)C(C)C)C(=O)N[C@@H](Cc1c[nH]cn1)C(=O)N[C@@H](Cc1ccccc1)C(=O)O [3102.0847] (H-GVFYRPLHF-OH) | 5.5 |
| CC[C@H](C)[C@H](NC(=O)[C@H](CS)NC(=O)[C@H](CO)NC(=O)[C@@H](NC(=O)[C@H](CS)NC(=O)[C@H](CO)NC(=O)[C@H](CCSC)NC(=O)[C@@H](N)CCSC)[C@@H](C)CC)C(=O)N[C@@H](Cc1ccccc1)C(=O)O [3102.0850] (H-MMSCISCIF-OH) | 7.6 |
| CC[C@H](C)[C@H](NC(=O)[C@@H](N)CCCCN)C(=O)N[C@@H](CCCCN)C(=O)N[C@@H](Cc1c[nH]cn1)C(=O)N[C@@H](CCCCN)C(=O)NCC(=O)N[C@@H](CCSC)C(=O)N[C@@H](CO)C(=O)N[C@@H](Cc1ccccc1)C(=O)O [3102.0851] (H-KIKHKGMSF-OH) | 47 |
